In ChEMBL document CHEMBL1121435, “Prostaglandin analogues possessing antinidatory effects. 2. Modification of the alpha chain” (1980):

What follows are compounds tested on Rattus norvegicus (assay: Antinidatory effect was measured in the rat, relative to that of prostaglandin F2-alpha (ED50 = 1.3 (0.9-1.87)mg/kg)).
Type: functional

Structure (SMILES) | Relative activity
O=C(O)/C=C/C/C=C\C[C@@H]1[C@@H](/C=C/[C@@H](O)COc2cccc(Cl)c2)[C@H](O)C[C@@H]1O | 200
COC(=O)C/C=C/C=C\C[C@@H]1[C@@H](/C=C/[C@@H](O)COc2cccc(Cl)c2)[C@H](O)C[C@@H]1O | 800
COC(=O)C/C=C/C=C\C[C@@H]1[C@@H](/C=C/[C@@H](O)COc2cccc(C(F)(F)F)c2)[C@H](O)C[C@@H]1O | 100
COC(=O)/C=C/C/C=C\C[C@@H]1[C@@H](/C=C/[C@@H](O)COc2cccc(C(F)(F)F)c2)[C@H](O)C[C@@H]1O | 100
COC(=O)CC=C/C=C\C[C@@H]1[C@@H](/C=C/[C@@H](O)COc2ccccc2)[C@H](O)C[C@@H]1O | 1200
COC(=O)CCC/C=C\C[C@@H]1[C@@H](/C=C/[C@@H](O)COc2cccc(Cl)c2)[C@H](O)C[C@@H]1O | 200
COC(=O)C/C=C/CCC[C@@H]1[C@@H](/C=C/[C@@H](O)COc2ccccc2)[C@H](O)C[C@@H]1O | 40
COC(=O)C/C=C/C=C/C[C@@H]1[C@@H](/C=C/[C@@H](O)COc2cccc(Cl)c2)[C@H](O)C[C@@H]1O | 100
COC(=O)/C=C/C/C=C/C[C@@H]1[C@@H](/C=C/[C@@H](O)COc2cccc(Cl)c2)[C@H](O)C[C@@H]1O | 100
COC(=O)C/C=C/C=C\C[C@@H]1[C@@H](/C=C/[C@@H](O)COc2ccccc2)[C@H](O)C[C@@H]1O | 800
COC(=O)C/C=C/C=C/C[C@@H]1[C@@H](/C=C/[C@@H](O)COc2ccccc2)[C@H](O)C[C@@H]1O | 200
O=C(O)/C=C/CCCC[C@@H]1[C@@H](/C=C/[C@@H](O)COc2cccc(C(F)(F)F)c2)[C@H](O)C[C@@H]1O | 4
COC(=O)C(CC/C=C\C[C@@H]1[C@@H](/C=C/[C@@H](O)COc2cccc(Cl)c2)[C@H](OC2CCCCO2)C[C@@H]1OC1CCCCO1)[Se]c1ccccc1 (some centres not stated) | 1
COC(=O)/C=C/C/C=C\C[C@@H]1[C@@H](/C=C/[C@@H](O)COc2ccc(Cl)cc2)[C@H](O)C[C@@H]1O | 100
COC(=O)/C=C/C=C/CC[C@@H]1C(/C=C/[C@@H](O)COc2ccccc2)[C@H](O)C[C@@H]1O (some centres not stated) | 20
COC(=O)CCC/C=C\C[C@@H]1[C@@H](/C=C/[C@@H](O)COc2cccc(C(F)(F)F)c2)[C@H](O)C[C@@H]1O | 100
COC(=O)CC=C/C=C\C[C@@H]1[C@@H](/C=C/[C@@H](O)COc2cccc(Cl)c2)[C@H](O)C[C@@H]1O | 600

What follows are compounds tested on Rattus norvegicus (assay: Antinidatory effect was measured in the rat, relative to that of prostaglandin F2-alpha (ED50 = 1.3 (0.9-1.87) mg/kg); Range 4-8).
Type: functional

Structure (SMILES) | Relative activity
COC(=O)/C=C/C=C/CC[C@@H]1C(/C=C/[C@@H](O)COc2cccc(Cl)c2)[C@H](O)C[C@@H]1O (some centres not stated) | 4

Each compound was assayed on Rattus norvegicus (assay: Antinidatory effect was measured in the rat, relative to that of prostaglandin F2-alpha (ED50 = 1.3 (0.9-1.87) mg/kg); Range 2-4).
Type: functional

Structure (SMILES) | Relative activity
O=C(O)/C=C\CCCC[C@@H]1[C@@H](/C=C/[C@@H](O)COc2cccc(C(F)(F)F)c2)[C@H](O)C[C@@H]1O | 2

The compounds below were run on Rattus norvegicus (assay: Antinidatory effect was measured in the rat, relative to that of prostaglandin F2alpha (ED50 = 1.3 (0.9-1.87) mg/kg); Range 200-400).
Type: functional

Structure (SMILES) | Relative activity
COC(=O)C/C=C/C=C\C[C@@H]1[C@@H](/C=C/[C@@H](O)COc2ccc(Cl)cc2)[C@H](O)C[C@@H]1O | 200
COC(=O)/C=C/C/C=C\C[C@@H]1[C@@H](/C=C/[C@@H](O)COc2ccccc2)[C@H](O)C[C@@H]1O | 200
COC(=O)CCC/C=C\C[C@@H]1[C@@H](/C=C/[C@@H](O)COc2ccccc2)[C@H](O)C[C@@H]1O | 200
